Experimental data taken from patent US12551532B2, “Long-acting amylin receptor agonists and uses thereof” (Eli Lilly and Company, priority 2021, dated 2026).

Legend:
human dendritic cells = type: cell-based
Experimental: MAPPS profiles the MHC-II presented peptides on human dendritic cells treated with tested molecules. CD14+ cells, isolated from the PBMCs of normal human donors, are cultured and differentiated into immature DCs by incubation with IL-4 and GM-CSF. On day 4, culture media is replaced with fresh media containing tested molecules. On day 5, LPS is added to transform the cells into mature DCs. On day 6, cells are lysed in RIPA buffer with protease inhibitors. Immunoprecipitation of MHC-II complexes are performed using biotinylated anti-MHC-II antibody coupled to streptavidin beads. The bound complex is eluted and filtered. The isolated MHC-II peptides are analyzed by a mass spectrometer. Peptide identifications are generated by an internal proteomics pipeline using search algorithms with no enzyme and a bovine/human database with test sequences appended to the database. A KNIME workflow is used to process the identification files from the samples. Peptides identified from the test articles are aligned against the parent sequence of the test molecule. The output is used to determine the percentage of donors displaying MHC-II peptides from regions of the test molecule. Compound II, Compound IV, Compound VI, Compound VIII, a compound representative of U.S. Pat. No. 9,023,789 (hereinafter “Compound '789”), and Pramlintide are tested in the MAPPs assay.

[1] = DIO rats: Compound II alone and in combination with incretin compounds; type: in vivo, Long Evans rats
Experimental: This study is conducted to investigate the effect of Compound II for diabetes and/or obesity conditions in DIO rats when administered in combination with other incretin compounds, including a GLP-1 agonist (Compound XVII), oxyntomodulin analog (Compound XVIII), and a triagonist of glucagon, GLP-1, and GIP (Compound XIX). Diet-induced obese (DIO) male Long Evans (Envigo) rats, maintained on a calorie rich diet since arrival at Lilly (TD95217; Teklad, Madison, WI), are used in the following studies. Animals are individually housed in a temperature-controlled (24° C.) facility with 12-hour light/dark cycle (lights on 2200) and free access to food (TD95217) and water.
The rats are randomized according to their body weight, so that each experimental group of animals would have similar body weight. The body weights range from 529 to 823 grams.
Each group contains five rats. […] SC injections are made on Days 1, 4, 7, 10 and 13. Body weight and food intake are measured daily throughout the study. Absolute changes in body weight are calculated by subtracting the body weight of the same animal prior to the first injection of molecule.
At the end of the study, blood is collected to measure blood glucose and plasma insulin. Blood glucose is measured by AccuChek glucometers (Roche, Indianapolis, IN). Insulin is measured by ELISA (MSD, Rockville, MD).
All data are presented as mean±SEM of 5 animals per group. Statistical analysis is performed using one-way ANOVA, followed by Tukey's multiple comparison test to compare treatment groups to vehicle group or each other. Significant differences are identified at p<0.05.

Experimental for CD4+ T cells: This assay assesses the ability of tested antibodies or tested MAPPS peptides to activate CD4+ T cells by inducing cellular proliferation. CD8+ T cell depleted PBMC's are prepared and labeled with CFSE. Each sample is tested with media control, keyhole limpet haemocyanin (KLH; positive clinical benchmark control), tested antibodies, or tested MAPPS peptides. Cultures are incubated for 7 days. On day 7, samples are analyzed by flow cytometry.

Row | MAPPS Assay donors displayed peptides (human dendritic cells) | MAPPS Assay immunogenicity risk (human dendritic cells) | Molecule | peptides displayed on MHC-II complexes (human dendritic cells) | T Cell Proliferation Assay: protein, immunogenicity risk (CD4+ T cells) | T Cell Proliferation Assay: protein, positive donors (CD4+ T cells) | Body Weight Change ([1]; 3 nmol/kg SC Day 1, 4, 7, 10, 13, Day 1 to Day 14, mean±SEM) [g] | Cumulative Food Intake ([1]; 3 nmol/kg SC every three days, 14-day treatment period, mean±SEM) [g]
1 | 10/10 | High Risk | CC[C@H](C)[C@H](NC(=O)[C@@H]1CCCN1C(=O)CNC(=O)[C@H](Cc1ccccc1)NC(=O)[C@H](CC(N)=O)NC(=O)[C@H](CC(N)=O)NC(=O)[C@H](CO)NC(=O)[C@H](CO)NC(=O)[C@H](Cc1c[nH]cn1)NC(=O)[C@@H](NC(=O)[C@H](CC(C)C)NC(=O)[C@H](Cc1ccccc1)NC(=O)[C@H](CC(N)=O)NC(=O)[C@H](C)NC(=O)[C@H](CC(C)C)NC(=O)[C@H](CCCNC(=N)N)NC(=O)[C@H](CCC(N)=O)NC(=O)[C@@H](NC(=O)[C@H](C)NC(=O)[C@@H]1CSSC[C@H](NC(=O)[C@@H](N)CCCCN)C(=O)N[C@@H](CC(N)=O)C(=O)N[C@@H]([C@@H](C)O)C(=O)N[C@@H](C)C(=O)N[C@@H]([C@@H](C)O)C(=O)N1)[C@@H](C)O)C(C)C)C(=O)N[C@@H](CC(C)C)C(=O)N1CCC[C@H]1C(=O)N1CCC[C@H]1C(=O)N[C@H](C(=O)N[C@@H](CC(N)=O)C(=O)N[C@H](C(=O)NCC(=O)N[C@@H](CO)C(=O)N[C@@H](CC(N)=O)C(=O)N[C@H](C(=O)N[C@@H](Cc1ccc(O)cc1)C(N)=O)[C@@H](C)O)C(C)C)[C@@H](C)O [Compound XV, reference compound] | two peptide clusters that in total span residues 1-34 | High Risk | (7/7 positive |  | 
2 |  |  | Y-Aib-QGTFTSDYSI-αMeL-LDKK((2-[2-(2-Amino-ethoxy)-ethoxy]-acetyl)-(γGlu)-CO-(CH2)18-CO2H)AQ-Aib-AFIEYLLEGGPSSGAPPPS-NH2 (YXQGTFTSDYSIXLDKKAQXAFIEYLLEGGPSSGAPPPS; Aib, αMeL; lipidated Lys; C-terminal amide; SITE 2 X at position 2 is Aib; SITE 13 X at position 13 is alpha-methyl-leucine; MOD_RES 17 K at position 17 is chemically modified by conjugation of the epsilon-amino group of the lysine side chain with (2-[2-(2-amino-ethoxy)-ethoxy]-acetyl)-(gamma-glutamic acid)-CO-(CH2)18-CO2H; SITE 20 X at position 20 is Aib; MOD_RES 39 S at position 39 is amidated) [Compound XIX, triagonist of glucagon, GLP-1, and GIP] |  |  |  | -43.28 ± 2.54 | 157.50 ± 10.63
